PubChem BioAssay AID1963825 (Molecular Pharmacology Branch, DTP, NCI, 2024)

Assay: Anticancer human tumor 997537-175-T-J1-PDC patient-derived colon adenocarcinoma cell line growth inhibition [POLQ]
Settings: 997537-175-T-J1-PDC complex spheroid viability, combination with POLQ inhibitors; for IC50: curve of first compound; for viability, T/C: stronger effect = lower value
Method in brief: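 Patient-derived tumour cells were co-cultured with HUVEC and mesenchymal stem cells as multicellular spheroids at 37 °C. They were treated with POLQ inhibitors (novobiocin, ART-558, RP6685) alone or combined with other agents. Top concentrations were at or near clinical Cmax (otherwise 10 microM; SN-38 at 1 microM), decreasing in half-log steps.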
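Further: luminescence signal used as a surrogate for viable cells; spheroids exposed to drugs for seven days before readout.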

**Q.** Which results are given for `CC(=O)O[C@H]1C(=O)[C@@]2(C)[C@H]([C@H](OC(=O)c3ccccc3)[C@]3(O)C[C@H](OC(=O)[C@H](O)[C@@H](NC(=O)c4ccccc4)c4ccccc4)C(C)=C1C3(C)C)[C@]1(OC(C)=O)CO[C@@H]1C[C@@H]2O` + COC1C(OC(N)=O)C(O)C(Oc2ccc3c(O)c(NC(=O)c4ccc(O)c(CC=C(C)C)c4)c(=O)oc3c2C)OC1(C)C?
**A.** IC50 (second compound 0.0316 µM): 18.6 nM; IC50 (second compound 0.1 µM): < 9.49 nM; IC50 (second compound 0.316 µM): 82.6 nM; IC50 (second compound 1 µM): 16.5 nM; IC50 (second compound 3.16 µM): 14.6 nM; IC50 (second compound 10 µM): 17 nM; viability, T/C (second compound 0.0316 µM, first compound 0.00949 µM): 65.5%; viability, T/C (second compound 0.0316 µM, first compound 0.03 µM): 41.5%; viability, T/C (second compound 0.0316 µM, first compound 0.0949 µM): 24.5%; viability, T/C (second compound 0.0316 µM, first compound 0.3 µM): 41.6%; viability, T/C (second compound 0.0316 µM, first compound 0.949 µM): 23.9%; viability, T/C (second compound 0.0316 µM, first compound 3 µM): 42%; viability, T/C (second compound 0.1 µM, first compound 0.00949 µM): 46.6%; viability, T/C (second compound 0.1 µM, first compound 0.03 µM): 41%; viability, T/C (second compound 0.1 µM, first compound 0.0949 µM): 23.9%; viability, T/C (second compound 0.1 µM, first compound 0.3 µM): 44.9%; viability, T/C (second compound 0.1 µM, first compound 0.949 µM): 21.9%; viability, T/C (second compound 0.1 µM, first compound 3 µM): 28.1%; viability, T/C (second compound 0.316 µM, first compound 0.00949 µM): 70.7%; viability, T/C (second compound 0.316 µM, first compound 0.03 µM): 60.1%; viability, T/C (second compound 0.316 µM, first compound 0.0949 µM): 34.6%; viability, T/C (second compound 0.316 µM, first compound 0.3 µM): 50.9%; viability, T/C (second compound 0.316 µM, first compound 0.949 µM): 34%; viability, T/C (second compound 0.316 µM, first compound 3 µM): 18.2%; viability, T/C (second compound 1 µM, first compound 0.00949 µM): 66.9%; viability, T/C (second compound 1 µM, first compound 0.03 µM): 32.5%; viability, T/C (second compound 1 µM, first compound 0.0949 µM): 22.9%; viability, T/C (second compound 1 µM, first compound 0.3 µM): 29.6%; viability, T/C (second compound 1 µM, first compound 0.949 µM): 29.9%; viability, T/C (second compound 1 µM, first compound 3 µM): 35.3%; viability, T/C (second compound 3.16 µM, first compound 0.00949 µM): 61.8%; viability, T/C (second compound 3.16 µM, first compound 0.03 µM): 24.9%; viability, T/C (second compound 3.16 µM, first compound 0.0949 µM): 22.7%; viability, T/C (second compound 3.16 µM, first compound 0.3 µM): 30.7%; viability, T/C (second compound 3.16 µM, first compound 0.949 µM): 44%; viability, T/C (second compound 3.16 µM, first compound 3 µM): 28.1%; viability, T/C (second compound 10 µM, first compound 0.00949 µM): 67.2%; viability, T/C (second compound 10 µM, first compound 0.03 µM): 27%; viability, T/C (second compound 10 µM, first compound 0.0949 µM): 35.5%; viability, T/C (second compound 10 µM, first compound 0.3 µM): 40.1%; viability, T/C (second compound 10 µM, first compound 0.949 µM): 27.4%; viability, T/C (second compound 10 µM, first compound 3 µM): 35.6%
